From patent publication US12558371B2, “Chondroitin sulfate polysaccharide, and semi-synthetic preparation method therefor and use thereof” (Institute of Materia Medica, Chinese Academy of Medical …, priority 2019, dated 2026)
Marks after values point to notes of the source that are not given here.

Experiments:
[1] = tested on: mouse ear acute swelling inflammation models caused by croton oil; assay: Mouse ear acute swelling inflammation model caused by croton oil; assay type: in vivo, Balb/c mice; conditions: 5 mg/kg, once a day for 3 d
Experimental: Anti-inflammatory effects of the glycans 1 to 5 prepared in Examples 1 to 5 were evaluated, specifically as follows:
(1) Test method: experiments for evaluating pharmacodynamic activities of CS compounds in mouse ear acute swelling inflammation models caused by croton oil
Animals: Balb/c mice, male (20 g to 22 g); 8 mice per group.
Groups: model group, positive drug (indometacin) group (5 mg/kg), natural extract (CS-E) group (200 mg/kg), and glycan groups (200 mg/kg, 100 mg/kg, and 50 mg/kg). Each of the positive drug and the compounds of CS series was formulated with sodium carboxymethylcellulose at a concentration of 0.5% by mass, and stored in a refrigerator at 4° C.
Administration and test: the mice were administered for 3 d, once a day. After the last administration, an induction rate on mouse ear swelling (%) and an inhibition rate on the ear swelling degree (%) by the compounds were calculated.
Statistical analysis: the experimental results were all expressed as “mean±standard deviation”. A statistical difference between two groups was calculated and analyzed by the t-test method. * represents p<0.05, and ** represents p<0.01.

[2] = tested on: DSS-induced UC model mice; assay: DSS-induced acute ulcerative colitis (UC) mouse model; assay type: in vivo, C57BL/6J mice
Experimental: Pharmacodynamics of the Glycan 3 (referred to as SEMI5) prepared in Example 3 was evaluated on anti-DSS models, specifically as follows:
C57BL/6J mice, male (18 g to 20 g), 6 mice per group, which were purchased from Beijing Huafukang Biotechnology Co., Ltd., with a license No.: SCXK (Beijing) 2014-0004.
(1) Normal control group (control group): intragastrically administered with sodium carboxymethylcellulose at a concentration of 0.5% by mass.
(2) UC (Ulcerative colitis) model group (model group): intragastrically administered with sodium carboxymethylcellulose at a concentration of 0.5% by mass.
(3) SASP (a positive drug salazosulfapyridine) group: Shanghai Xinyi Pharmaceutical Co., Ltd. (Batch No.: 036151102), 500 mg/kg, which was formulated with sodium carboxymethylcellulose at a concentration of 0.5% by mass and stored at 4° C., and intragastrically administered once a day.
(4) SEMI5-50 group: 50 mg/kg, which was formulated with distilled water and stored at 4° C., and intragastrically administered once a day.
(5) SEMI5-150 group: 150 mg/kg, which was formulated with distilled water and stored at 4° C., and intragastrically administered once a day.
3. Experimental method After being adaptively raised for one week in an SPF animal house (experimental animal use license No.: SYXK (Beijing) 2014-0023), the C57BL/6J mice were randomly divided into 5 groups according to the above protocols. Mice in the UC model group and administration groups were modeled with DSS (MP, CA9011-18-1, US) every day according to the modeling method for ulcerative colitis that had been established in the laboratory. The normal control group (control group) and UC model group (model group) were intragastrically administered with sodium carboxymethylcellulose at a concentration of 0.5% by mass once a day. The SASP group, SEMI5-50 group, and SEMI5-150 group were intragastrically administered once a day according to the experimental protocols in the section of “Experimental groups”. 7 d after modeling, typical UC pathological changes such as obvious listlessness, activity reduction, weight loss, watery stool, and hematochezia occurred in animals of the UC model group. The experiments were terminated, and animals in each group were sacrificed. Each of evaluation indexes related with colitis was detected (as shown in the subsequent section of experimental results). The anti-UC pharmacodynamic activity of each of the compounds was evaluated comprehensively.
The animals were evaluated by the DAI scores in terms of indexes such as animal body weight loss, stool property, hematochezia. The lower the DAI score was, the closer was the condition of the animal to a normal physiological status.

[3] = 500 mg/kg intragastrically once a day, 7 d

Row | SMILES | Inhibition rate (%) ([1]; Table 2) | Swelling rate (%) Mean ± SD ([1]; Table 2) | Inhibition rate (%) ([1]; Table 3) | Swelling rate (%) Mean ± SD ([1]; Table 3) | Inhibition rate (%) ([1]; Table 4) | Swelling rate (%) Mean ± SD ([1]; Table 4) | Effect on body weight reduction vs. UC model group (in words) ([2]; 500 mg/kg) | Effect on colon contracture vs. UC model group (in words) ([2]; 500 mg/kg) | Effect on disease complex index DAI scores vs. UC model group (in words) ([2]; 500 mg/kg) | Overall anti-UC activity (conclusion in words) ([2]; 500 mg/kg) | Colon contracture percentage (%) [2, 3] [%] | Colon length (cm) [2, 3] [cm] | DAI complex index inhibition rate (%) [2, 3] | Disease activity index DAI [2, 3] | Body weight (g) X ± SD, End ([2]; 500 mg/kg intragastrically once a day, end, 7 d after modeling) [g] | Body weight (g) X ± SD, Start ([2]; 500 mg/kg intragastrically once a day, start of experiment) [g]
1 | COc1ccc2c(c1)c(CC(=O)O)c(C)n2C(=O)c1ccc(Cl)cc1 [Indometacin, indometacin] | 26.01 | 70.25 ± 20.97* % | 27.70 | 74.43 ± 20.97* % | 41.06 | 45.34 ± 6.92* % |  |  |  |  |  |  |  |  |  | 
2 | O=C(O)c1cc(/N=N/c2ccc(S(=O)(=O)Nc3ccccn3)cc2)ccc1O [SASP, salazosulfapyridine] |  |  |  |  |  |  | failed to effectively alleviate the body weight reduction | failed to effectively alleviate the colon contracture | improved to some extent | exhibited a certain anti-UC activity | 31.39 | 5.29 ± 0.61 | 14.68* % | 3.10 ± 0.59 | 18.76 ± 1.09 | 21.97 ± 0.71
